Experimental data reported in US9532983B2, “Benzofuran compounds, compositions, kits and/or methods thereof” (Savannah State University, priority 2013, dated 2017).
Entries after “also recorded” stand apart in the source; their conditions may differ. Read-outs that look alike come from different tables or passages of the source.

What was measured:
StAR = assay: Western blot, expression of StAR in MA-10 cells; type: cell-based, mouse
Procedure: (§1) Mouse Leydig cell line (MA-10) was grown in Waymouth media containing 15% horse serum, 5% fetal bovine serum, and 1× gentamycin, which was replaced with 250 mg/ml G418 (geneticin) for VDAC1 knockdown (ΔVDAC1) MA10 cells. Cells were maintained at 37° C. in a humidified incubator under 5% CO2. To isolate mitochondria, cells were removed from tissue culture plates by gentle scrapping in phosphate-buffered saline at room temperature, incubated in hypotonic buffer (10 mM HEPES, pH 7.4) for 30 to 40 min, and mitochondria were isolated following readily available procedures. The mitochondrial preparation was verified by Western blotting with the cytochrome P450 SCC enzyme (Corgen, Tapai, Taiwan) and calnexin antibodies (Santa Cruz Biotechnology, Inc., Santa Cruz, Calif.).
(§2) Protein (12.5 μg) was separated by 15% SDS-polyacrylamide gel electrophoresis and transferred to a polyvinylidinedifluoride membrane (Millipore Corporation, Billerica, Mass.). The membrane was blocked with 3% nonfat dry milk for 45 min, probed overnight with the primary antibodies, and then incubated with […] goat anti-rabbit or anti mouse IgG (Thermo Fisher Scientific, Waltham, Mass.). Signals were developed with chemiluminescent reagent (Thermo Fisher Scientific). For loading control of all Western blots, the membrane was stained with β-actin antibody, which was previously independently stained with StAR or 3-β-hydroxysteroid dehydrogenase (3βHSD2) or VDAC1 and VDAC2 antiserum. The band intensity was determined by using Image Quant 5.2 (Phosphorimager; GE Healthcare, Chalfont St. Giles, Buckinghamshire, UK). Densitometric calculation may reflect the ratio of σ1 or VDAC2 and β-actin following an established procedure that is readily available.
The role of KSCM ligands on the expression of StAR in MA-10 cells was evaluated. In all the cases studied, both the 37-kDa unimported and the 30-kDa mitochondrial-imported, mature protein, were observed but not the 32-kDa transient intermediate protein. The same membrane was probed first with StAR antibody and then with β-actin antibody independently. […] Coimmunoprecipitation experiments were performed to determine whether there was a direct interaction between σ1 receptor and StAR or VDAC2. […] StAR is a 37-kDa protein and thus it is higher than the 28-kDa σ1 (FIG. 5A), confirming that StAR interaction with the σ1 receptor.

5-HT2B = biological target: T1, 5-HT2B (Homo sapiens, UniProt P41595); assay: Primary binding assay at non-sigma receptors: 5-HT2B; conditions: read-out: % Inhibition 5-HT2B
T1 construct: expressed in transfected cells
Procedure: (§3) Initial primary binding screening assays were performed using a 50 μM (initial)−10 μM (final) assay concentration of reference and test compounds.

σ2 receptor = biological target: T2, σ2 receptor (Rattus norvegicus, UniProt Q5U3Y7); assay: Secondary binding assay, Ki determination at σ2 receptor ([3H]DTG, PC12 cell homogenates); conditions: read-out: σ-2 (Ki)
T2 construct: PC12 cell homogenates for σ2 receptors were added to the wells; endogenous in cells; host or cells: PC12 cell homogenate
T2 sequence (Q5U3Y7 1-176): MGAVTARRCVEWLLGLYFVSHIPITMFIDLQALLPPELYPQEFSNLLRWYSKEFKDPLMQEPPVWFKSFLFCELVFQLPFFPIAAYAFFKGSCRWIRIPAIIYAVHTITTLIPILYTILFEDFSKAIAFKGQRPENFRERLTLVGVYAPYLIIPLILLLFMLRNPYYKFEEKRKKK
Procedure: Secondary binding assays, Ki determinations were performed by measuring the inhibition of radioligand binding by various concentrations of test and reference compound. […] [^3H]Pentazocine (3 nM) was used as the radioligand for σ1 receptors and [^3H]Ditolyglguanidine (DTG) (1 nM) as the radioligand for σ2 receptors. Aliquots (50 μl) of radioligand were dispensed into the wells of a 96-well plate containing 100 μl of Standard Binding Buffer. Then, duplicate 50-μl aliquots of the test and reference compound dilutions were added. Finally, either crude membrane fractions prepared from rat brain homogenate for σ1 receptors or PC12 cell homogenates for σ2 receptors were added to the wells, and the plates shielded from light to prevent photolysis of light sensitive ligands.
For σ1 receptors, the reactions were incubated at 37° C. for 2.5 h, and for σ2 receptors, the reactions were incubated at room temperature for 2 h. Labeled receptors were harvested by rapid filtration on to Whatman GF/B glass filters pre-soaked with 0.3% polyethyleneimine using 96-well Brandel harvester. Four rapid 500 μl washes are performed with chilled Standard Binding buffer to reduce non-specific binding. Filters were placed in 6-ml scintillation tubes and allowed to dry overnight. EcoScint scintiallation cocktail (National Diagnostics) was added to each tube prior to counting. […] The filter mats were dried, the scintillate melted onto the filters and the radioactivity counted in a Microbeta scintillation counter.
Raw data (dpm) representing total radioligand binding (i.e., specific+nonspecific binding) were plotted as a function of the logarithm of the molar concentration of the competitor (i.e., test or reference compound).

5HT3 = biological target: T3, 5HT3 (Homo sapiens, UniProt P46098); assay: Primary binding assay at non-sigma receptors: 5HT3; conditions: 10 μM (final) assay concentration
T3 construct: expressed in transfected cells
T3 sequence (P46098 24-478): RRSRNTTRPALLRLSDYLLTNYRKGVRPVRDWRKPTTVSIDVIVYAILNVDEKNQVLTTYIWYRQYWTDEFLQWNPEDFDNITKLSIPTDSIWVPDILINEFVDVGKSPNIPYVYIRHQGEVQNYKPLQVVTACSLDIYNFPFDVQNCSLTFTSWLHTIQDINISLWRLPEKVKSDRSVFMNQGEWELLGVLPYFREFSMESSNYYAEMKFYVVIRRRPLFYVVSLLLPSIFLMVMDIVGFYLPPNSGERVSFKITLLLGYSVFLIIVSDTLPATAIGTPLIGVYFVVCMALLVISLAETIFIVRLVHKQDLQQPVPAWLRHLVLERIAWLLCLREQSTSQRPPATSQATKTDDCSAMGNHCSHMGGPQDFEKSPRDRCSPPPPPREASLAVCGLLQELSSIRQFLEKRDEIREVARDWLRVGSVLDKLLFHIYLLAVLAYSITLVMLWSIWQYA
Procedure: as §3

[1] = tested on: mitochondria from steroidogenic MA-10 cells; assay: Metabolic conversion of [3H]pregnenolone to progesterone in isolated MA-10 mitochondria; type: biochemical, mouse
Procedure: as §1
To measure the conversion of [^3H]pregnenolone to [^3H]progesterone, isolated mitochondria from steroidogenic MA-10 cells (300 μg) were incubated in phosphate buffer along with the substrate, and the reaction was initiated by the NAD. For metabolic conversion of [^14C]cholesterol to pregnenolone, the reaction was initiated by the addition of NADPH, and for complete conversion we used 5-fold excess of cold carrier to reach the saturation point. The steroids were extracted with ether/acetone (9:1 v/v), and equal amounts of a cold pregnenolone-progesterone (50:50; Sigma, St. Louis, Mo.) mixture in CH2C12 was added as a carrier. The extracts were concentrated under a stream of nitrogen or air and then separated by thin-layer chromatography (TLC) (Whatman, Clifton, N.J.) using a chloroform/ethyl acetate (3:1) mobile phase.
Given the potential role of σ1 in steroidogenesis (FIG. 4A), we performed conversion assays in the presence of three sigma receptor ligands. […] The possibility exists that the σ1 receptor transiently interacts with the OMM-associated porins. As such, the increased levels of σ1 receptor with KSCM-11 may enhance the transport of substrate cholesterol into the mitochondria, thereby increasing progesterone synthesis.

σ1 receptor = assay: Western blot, expression of σ1 receptor in MA-10 cells; type: cell-based, mouse; conditions: 24 h, increasing concentrations
Procedure: as §1, with “Cells” for “Mouse Leydig cell line (MA-10) was grown in Waymouth media containing 15% horse serum, 5% fetal bovine serum, and 1× gentamycin, which was replaced with 250 mg/ml G418 (geneticin) for VDAC1 knockdown (ΔVDAC1) MA10 cells. Cells”
as §2, with “The” for “Protein (12.5 μg) was separated by 15% SDS-polyacrylamide gel electrophoresis and transferred to a polyvinylidinedifluoride membrane (Millipore Corporation, Billerica, Mass.). The”
In addition, VDAC2 antibody (FIG. 3E) was used to probe and was compared with β-actin expression (FIG. 3F) of the same membrane.

[2] = higher concentrations than 10 nM

T1 sequence (P41595 whole entry, species assumed): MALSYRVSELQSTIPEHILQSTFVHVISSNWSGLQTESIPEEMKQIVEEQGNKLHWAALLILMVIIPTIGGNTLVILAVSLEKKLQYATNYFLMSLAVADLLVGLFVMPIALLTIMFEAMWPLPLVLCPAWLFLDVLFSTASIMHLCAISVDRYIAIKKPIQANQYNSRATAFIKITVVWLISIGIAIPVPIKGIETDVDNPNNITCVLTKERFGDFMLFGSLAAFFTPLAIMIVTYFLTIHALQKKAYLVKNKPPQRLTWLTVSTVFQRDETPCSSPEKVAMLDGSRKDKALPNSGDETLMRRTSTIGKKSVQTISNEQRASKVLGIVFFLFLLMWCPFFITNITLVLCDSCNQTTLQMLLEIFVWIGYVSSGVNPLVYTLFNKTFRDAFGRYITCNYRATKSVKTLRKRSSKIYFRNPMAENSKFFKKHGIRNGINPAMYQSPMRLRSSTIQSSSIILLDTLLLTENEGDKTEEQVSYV

Structure (SMILES)	expression of imported 30-kDa StAR (in words) (StAR)	expression of unimported 37-kDa StAR (in words) (StAR)	inhibition at 10 µM (5-HT2B)	Ki (σ2 receptor)	inhibition at 10 µM (5HT3)	effect on progesterone conversion (in words) [1, 2]	expression of the σ1 receptor (in words) (σ1 receptor)	inhibition at 10 µM (5-HT2B; primary binding assay, 10 μM (final) assay concentration)	effect on progesterone conversion (in words) ([1]; 10 nM)
COc1cc2oc(C(=O)N(CCCN3CCCCC3)c3ccccc3)c(C)c2cc1OC [KSCM-1, 5,6-Dimethoxy-3-methyl-N-phenyl-N-(3-(piperidin-1-yl)propyl)benzofuran-2-carboxamide]	unaffected	increased (and/or stabilized); also recorded: stabilizes the expression of unimported StAR	43.8%	528 nM	64.2%	reduced conversion to the basal level	increased expression; also recorded: increased with increasing concentrations		
Cc1c(C(=O)N(CCCN2CCCCC2)c2ccccc2)oc2ccccc12 [KSCM-5, 3-Methyl-N-phenyl-N-(3-(piperidin-1-yl)propyl)benzofuran-2-carboxamide]	unchanged	not and unchanged		16 nM	2.9%	conversion decreased significantly	increased only minimally; also recorded: remained unchanged	69.2%	no effect
COc1ccc2c(C)c(C(=O)N(CCCN3CCCCC3)c3ccccc3)oc2c1 [KSCM-11, 6-Methoxy-3-methyl-N-phenyl-N-(3-(piperidin-1-yl)propyl)benzofuran-2-carboxamide]	unchanged	not and unchanged	93.9%	41 nM	7.3%	conversion decreased significantly	increased expression; also recorded: moderately increased		no effect
